In patent US20220233743A1, “WOUND CLOSURE ENHANCEMENT METHODS AND MATERIALS VIA MANIPULATION OR AUGMENTATION OF LIPIN-1” (Board of Supervisors of Louisiana State University and …, priority 2019, published 2022):

System: BMDMs
Assay: Central carbon analysis of IL-4 treated BMDMs
Type: cell-based, mouse
Details: 40 ng/ml IL-4 for 4 h
Protocol: BMDMs from lipin-1^mKO and littermate control mice were seeded at a density of 1×10^6/ml into Falcon tubes (60818-500; VWR). Cells were either treated with or without IL-4 (40 ng/ml) for 4 h. Cells were then collected and spun at 400×g for 5 min. Cell pellets were sent to Creative Proteomics (Shirley, N.Y.) for central carbon analysis.
Macrophages need to align individual metabolic pathways to effectively respond to stimuli. The inventors wanted to understand the consequences of lipin-1 activity on immunometabolic responses in macrophages after stimulation with IL-4. WT and lipin-1 KO macrophages were stimulated with and without 40 ng/ml IL-4 for 4 h. Cell pellets were then sent to Creative Proteomics for central carbon analysis to determine the abundance of metabolites in major metabolic pathways, such as glycolysis, TCA cycle, and PPP. At baseline, lipin-1-deficient macrophages have an altered metabolism compared with WT macrophages. Lipin-1 KO BMDMs have multiple elevated glycolytic metabolites compared with WT BMDMs (FIGS. 10 and 43). […] The inventors also see an increase in metabolites within the PPP (FIG. 10). Upregulation of the PPP can result in increased NADPH (FIG. 10).
The alterations in metabolism in lipin-1-deficient BMDMs at baseline were exacerbated upon stimulation with IL-4. […] The TCA cycle generates electron carriers (NADH) that are used by the electron transport chain to generate ATP as part of oxidative phosphorylation. […] Lipin-1-deficient macrophages have an increase in the initial metabolites of the PPP, 6P-gluconate. The conversion of glucose-6P to 6P-gluconate generates NADPH, which can be used in lipid synthetic pathways (FIG. 10). […] Complete central carbon analysis can be found is found below: […]

Substance: IL-4: cytokine IL-4 (R&D Biosystems, 404-ML-050) used to stimulate macrophages; optional component of the claimed composition
- 6P-Gluconate, Mean (KO (lipin-1mKO) BMDMs): 0.02073
- ADP, Mean (KO (lipin-1mKO) BMDMs): 0.6171
- ADP-Glucose, Mean (KO (lipin-1mKO) BMDMs): 0.0026
- AMP, Mean (KO (lipin-1mKO) BMDMs): 2.121
- ATP, Mean (KO (lipin-1mKO) BMDMs): 0.24
- Acetyl-CoA, Mean (KO (lipin-1mKO) BMDMs): 0.00588
- Acetyl-Phosphate, Mean (KO (lipin-1mKO) BMDMs): 0.4686
- Acetylglucosamine-1P, Mean (KO (lipin-1mKO) BMDMs): 0.1085
- Acetylglucosamine-6P, Mean (KO (lipin-1mKO) BMDMs): 0.4128
- Citrate, Mean (KO (lipin-1mKO) BMDMs): 17.69
- DHAP, Mean (KO (lipin-1mKO) BMDMs): 0.05052
- Erythrose-4P, Mean (KO (lipin-1mKO) BMDMs): 0.03703
- Fructose-1,6-bisP, Mean (KO (lipin-1mKO) BMDMs): 0.02422
- Fructose-1P, Mean (KO (lipin-1mKO) BMDMs): 0.00893
- Fructose-6P, Mean (KO (lipin-1mKO) BMDMs): 0.05762
- Fumarate, Mean (KO (lipin-1mKO) BMDMs): 15.48
- GDP, Mean (KO (lipin-1mKO) BMDMs): 0.1098
- GMP, Mean (KO (lipin-1mKO) BMDMs): 14.33
- GTP, Mean (KO (lipin-1mKO) BMDMs): 0.0303
- Glucosamine-6P, Mean (KO (lipin-1mKO) BMDMs): 0.03932
- Glucose, Mean (KO (lipin-1mKO) BMDMs): 70.05
- Glucose-1,6-bisP, Mean (KO (lipin-1mKO) BMDMs): 0.04135
- Glucose-1P, Mean (KO (lipin-1mKO) BMDMs): 0.03615
- Glucose-6P, Mean (KO (lipin-1mKO) BMDMs): 0.09843
- Glyceraldehyde-3P, Mean (KO (lipin-1mKO) BMDMs): 0.1128
- Glycerate-2,3P, Mean (KO (lipin-1mKO) BMDMs): 0.00052
- Glycerate-2P, Mean (KO (lipin-1mKO) BMDMs): 0.00902
- Glycerate-3P, Mean (KO (lipin-1mKO) BMDMs): 0.07625
- Glycerol-3P, Mean (KO (lipin-1mKO) BMDMs): 0.8631
- Glycolate, Mean (KO (lipin-1mKO) BMDMs): 20.92
- Hs-CoA, Mean (KO (lipin-1mKO) BMDMs): 0.0443
- Isocitrate, Mean (KO (lipin-1mKO) BMDMs): 0.2094
- Latate, Mean (KO (lipin-1mKO) BMDMs): 1872
- Malate, Mean (KO (lipin-1mKO) BMDMs): 73.43
- Mannose-6P, Mean (KO (lipin-1mKO) BMDMs): 0.01255
- NAD+, Mean (KO (lipin-1mKO) BMDMs): 0.3551
- NADH, Mean (KO (lipin-1mKO) BMDMs): 0.3515
- NADP+, Mean (KO (lipin-1mKO) BMDMs): 0.1139
- NADPH, Mean (KO (lipin-1mKO) BMDMs): 0.1752
- PEP, Mean (KO (lipin-1mKO) BMDMs): 0.04492
- Phosphocreatine, Mean (KO (lipin-1mKO) BMDMs): 0.2338
- Pyruvate, Mean (KO (lipin-1mKO) BMDMs): 35.61
- Ribose-1,5bisP, Mean (KO (lipin-1mKO) BMDMs): 0.00195
- Ribose-5P, Mean (KO (lipin-1mKO) BMDMs): 0.07803
- Ribulose-1,5bisP, Mean (KO (lipin-1mKO) BMDMs): 0.02412
- Ribulose-5P, Mean (KO (lipin-1mKO) BMDMs): 0.1828
- Sedoheptulose-7P, Mean (KO (lipin-1mKO) BMDMs): 0.05303
- Succinate, Mean (KO (lipin-1mKO) BMDMs): 36.15
- Succinyl-CoA, Mean (KO (lipin-1mKO) BMDMs): 0.0234
- UDP, Mean (KO (lipin-1mKO) BMDMs): 0.1803
- UDP-Glucose, Mean (KO (lipin-1mKO) BMDMs): 0.5266
- UDP-acetylglucosamine, Mean (KO (lipin-1mKO) BMDMs): 0.9395
- UMP, Mean (KO (lipin-1mKO) BMDMs): 16.84
- UTP, Mean (KO (lipin-1mKO) BMDMs): 4.409
- cyclic-ADPR, Mean (KO (lipin-1mKO) BMDMs): 0.3267
- cyclic-AMP, Mean (KO (lipin-1mKO) BMDMs): 0.0031
- cyclic-UMP, Mean (KO (lipin-1mKO) BMDMs): 0.00447
- α-Ketoglutarate, Mean (KO (lipin-1mKO) BMDMs): 3.985
- 6P-Gluconate, Mean (WT BMDMs): 0.01622
- ADP, Mean (WT BMDMs): 0.8758
- ADP-Glucose, Mean (WT BMDMs): 0.00298
- AMP, Mean (WT BMDMs): 2.316
- ATP, Mean (WT BMDMs): 0.2736
- Acetyl-CoA, Mean (WT BMDMs): 0.00738
- Acetyl-Phosphate, Mean (WT BMDMs): 0.496
- Acetylglucosamine-1P, Mean (WT BMDMs): 0.1361
- Acetylglucosamine-6P, Mean (WT BMDMs): 0.5132
- Citrate, Mean (WT BMDMs): 15.89
- DHAP, Mean (WT BMDMs): 0.05342
- Erythrose-4P, Mean (WT BMDMs): 0.05778
- Fructose-1,6-bisP, Mean (WT BMDMs): 0.0196
- Fructose-1P, Mean (WT BMDMs): 0.00392
- Fructose-6P, Mean (WT BMDMs): 0.06408
- Fumarate, Mean (WT BMDMs): 19.48
- GDP, Mean (WT BMDMs): 0.1479
- GMP, Mean (WT BMDMs): 15.29
- GTP, Mean (WT BMDMs): 0.04348
- Glucosamine-6P, Mean (WT BMDMs): 0.04035
- Glucose, Mean (WT BMDMs): 53.46
- Glucose-1,6-bisP, Mean (WT BMDMs): 0.04287
- Glucose-1P, Mean (WT BMDMs): 0.03848
- Glucose-6P, Mean (WT BMDMs): 0.1044
- Glyceraldehyde-3P, Mean (WT BMDMs): 0.1365
- Glycerate-2,3P, Mean (WT BMDMs): 0.00063
- Glycerate-2P, Mean (WT BMDMs): 0.00803
- Glycerate-3P, Mean (WT BMDMs): 0.0653
- Glycerol-3P, Mean (WT BMDMs): 0.982
- Glycolate, Mean (WT BMDMs): 19.94
- Hs-CoA, Mean (WT BMDMs): 0.0517
- Isocitrate, Mean (WT BMDMs): 0.1146
- Latate, Mean (WT BMDMs): 2685
- Malate, Mean (WT BMDMs): 87.07
- Mannose-6P, Mean (WT BMDMs): 0.01458
- NAD+, Mean (WT BMDMs): 0.3884
- NADH, Mean (WT BMDMs): 0.5159
- NADP+, Mean (WT BMDMs): 0.1431
- NADPH, Mean (WT BMDMs): 0.1122
- PEP, Mean (WT BMDMs): 0.03792
- Phosphocreatine, Mean (WT BMDMs): 0.2747
- Pyruvate, Mean (WT BMDMs): 37.78
- Ribose-1,5bisP, Mean (WT BMDMs): 0.00238
- Ribose-5P, Mean (WT BMDMs): 0.08472
- Ribulose-1,5bisP, Mean (WT BMDMs): 0.02488
- Ribulose-5P, Mean (WT BMDMs): 0.2631
- Sedoheptulose-7P, Mean (WT BMDMs): 0.04902
- Succinate, Mean (WT BMDMs): 52.07
- Succinyl-CoA, Mean (WT BMDMs): 0.02933
- UDP, Mean (WT BMDMs): 0.2351
- UDP-Glucose, Mean (WT BMDMs): 0.5467
- UDP-acetylglucosamine, Mean (WT BMDMs): 1.096
- UMP, Mean (WT BMDMs): 18
- UTP, Mean (WT BMDMs): 5.48
- cyclic-ADPR, Mean (WT BMDMs): 0.3519
- cyclic-AMP, Mean (WT BMDMs): 0.00362
- cyclic-UMP, Mean (WT BMDMs): 0.00372
- glycolytic and TCA cycle metabolites on IL-4 stimulation (WT BMDMs): significant increase
- α-Ketoglutarate, Mean (WT BMDMs): 3.785
- TCA metabolite succinate on IL-4 stimulation (lipin-1 KO macrophages): decrease
- isocitrate on IL-4 stimulation (lipin-1 KO macrophages): significant increase
